Where two headings read alike, the source gives them in different places.
Tests used:
Test in all cases: 96-well microtiter plate assay, fungal growth inhibition
C. fragariae = format: cell-based, Colletotrichum fragariae; settings: for inhibition at 0.3 µM / inhibition at 3 µM / inhibition at 30 µM: Colletotrichum fragariae, read-out: Percent inhibition−Percent Stimulation±SEM; for Percent inhibition−Percent Stimulation±SEM: C. fragariae
Text: (§1) Pathogen production. Isolates of Colletotrichum acutatum Simmonds, Colletotrichum fragariae Brooks, and Colletotrichum gloeosporioides (Penz.) Penz. & Sacc. in Penz. were obtained from B. J. Smith, USDA, ARS, Small Fruit Research Station, Poplarville, Miss. Colletotrichum fragariae (isolate CF63), C. acutatum (isolate CAGoff), and C. gloeosporioides (isolate CG162) were used for all pathogen and bioautography studies. Isolate CF63 is one of the most virulent isolates at infecting strawberry plants and inducing both crown and fruit rot (Smith and Black, 1990). CF63, CAGoff, and CG162 were used as standard test isolates because of our extensive knowledge of these isolates and their known fungicide sensitivity profiles in both bioautography and microtiter formats. The three Colletotrichum species were isolated from strawberry (Fragaria x ananassa Duchesne). Botrytis cinerea Pers.: Fr, was isolated from commercial grape (Vitis vinifera L.) and Fusarium oxysporum Schlechtend: Fr from orchid (Cynoches sp.). Phomopsis viticola (Sacc.) and P. obscurans (Ellis & Everh.) Sutton were from Mike A. Ellis, Ohio State University, Wooster, Ohio. Fungi were grown on potato-dextrose agar (PDA, Difco, Detroit, Mich.) in 9 cm petri dishes and incubated in a growth chamber at 24±2° C. and under cool-white fluorescent lights ([…]·m^−2·sec^−1 light) with 12 hour photoperiod.
(§2) Inoculum preparation. Conidia were harvested from 7-10 day-old cultures by flooding plates with 5 mL of sterile distilled water and dislodging conidia by softly brushing the colonies with an L-shaped glass rod. Conidial suspensions were filtered through sterile miracloth (Calbiochem-Novabiochem Corp., La Jolla, Calif.) to remove mycelia. Conidia concentrations were determined photometrically, from a standard curve based on the percent of transmittance (% T) at 625 nm and suspensions were then adjusted with sterile distilled water to a concentration of 1.0×10^6 conidia/mL.
(§3) Microtiter assay. A standardized 96-well microtiter plate assay developed for discovery of natural product fungicidal agents was used to evaluate naturally occurring antifungal agents from Macaranga monanara. A 96-well microtiter assay was used to determine sensitivity of B. cinerea, C. acutatum, C. fragariae, C. gloeosporioides, F. oxysporum, Phomopsis viticola, and P. obscurans to the various antifungal agents in comparison with known fungicidal standards. Vinclozolin, captan, and thiabendazole, which represent three different modes of action, were used as standards in this experiment. Each fungus was challenged in a dose-response format using test compounds where the final treatment concentrations were 0.3, 3.0 and 30.0 μM. Microtiter plates (Nunc MicroWell, untreated; Roskilde, Denmark) were covered with a plastic lid and incubated in a growth chamber as described previously for fungal growth. Growth was then evaluated by measuring absorbance of each well at 620 nm using a microplate photometer (Packard Spectra Count, Packard Instrument Co., Downers Grove, Ill.). Microtiter plates (Nunc MicroWell, untreated; Roskilde, Denmark) were covered with a plastic lid and incubated in a growth chamber at 24±1° C. and 12 hour photoperiod under 60±5 μmol light. Growth was then evaluated by measuring absorbance of each well at 620 nm using a microplate photometer (Packard Spectra Count, Packard Instrument Co., Downers Grove, Ill.).
(§4) Microbioassy Experimental Design. Chemical sensitivity each of B. cinerea, C. acutatum, C. fragariae, C. gloeosporiodes, F. oxysporum, Phomopsis viticola, and P. obscurans was evaluated using 96-well plate microbioassay format. Each chemical was evaluated in duplicate at each dose (0.3, 3.0 and 30.0 μM). […]

C. acutatum = format: cell-based, Colletotrichum acutatum; settings: for inhibition at 0.3 µM / inhibition at 3 µM / inhibition at 30 µM: Colletotrichum acutatum, read-out: Percent inhibition−Percent Stimulation±SEM; for Percent inhibition−Percent Stimulation±SEM: C. acutatum
Text: as §1, §2, §3, §4

B. cinerea = format: cell-based, Botrytis cinerea; settings: for inhibition at 0.3 µM / inhibition at 3 µM / inhibition at 30 µM: Botrytis cinerea, read-out: Percent inhibition−Percent Stimulation±SEM; for Percent inhibition−Percent Stimulation±SEM: B. cinerea
Text: as §1, §2, §3, §4

C. gloeosporioides = format: cell-based, Colletotrichum gloeosporioides; settings: for inhibition at 0.3 µM / inhibition at 3 µM / inhibition at 30 µM: Colletotrichum gloeosporioides, read-out: Percent inhibition−Percent Stimulation±SEM; for Percent inhibition−Percent Stimulation±SEM: C. gloeosporioides
Text: as §1, §2, §3, §4

F. oxysporum = format: cell-based, Fusarium oxysporum; settings: for inhibition at 0.3 µM / inhibition at 3 µM / inhibition at 30 µM: Fusarium oxysporum, read-out: Percent inhibition−Percent Stimulation±SEM; for Percent inhibition−Percent Stimulation±SEM: F. oxysporum
Text: as §1, §2, §3, §4

Q: Which inhibition at 0.3 µM (C. fragariae; 48 h) does the source give for CCCCNC(=O)n1c(NC(=O)OC)nc2ccccc21 [Benomyl] here?
A: Its inhibition at 0.3 µM is 51.5 ± 5%.

Q: What about the inhibition at 3 µM (C. fragariae; 48 h) of the same compound?
A: The inhibition at 3 µM was 89.6 ± 1.2%.

Q: What about the inhibition at 30 µM (C. fragariae; 48 h) of the same compound?
A: Its inhibition at 30 µM is 92.4 ± 1.1%.

Q: What about the inhibition at 0.3 µM (C. fragariae; 72 h) of the same compound?
A: Its inhibition at 0.3 µM is 36.8 ± 4.4%.

Q: And the inhibition at 3 µM (C. fragariae; 72 h)?
A: The inhibition at 3 µM was 92.7 ± 1%.

Q: And the inhibition at 30 µM (C. fragariae; 72 h)?
A: Its inhibition at 30 µM is 94.3 ± 0.9%.

Q: And the inhibition at 0.3 µM (C. acutatum; 48 h)?
A: The inhibition at 0.3 µM was 24.6 ± 6.1%.

Q: What about the inhibition at 3 µM (C. acutatum; 48 h) of the same compound?
A: Its inhibition at 3 µM is 20.3 ± 4.8%.

Q: And the inhibition at 30 µM (C. acutatum; 48 h)?
A: The inhibition at 30 µM was 16.6 ± 6.3%.

Q: What about the inhibition at 0.3 µM (C. acutatum; 72 h) of the same compound?
A: The inhibition at 0.3 µM was -7.7 ± 6.6%.

Q: What about the inhibition at 3 µM (C. acutatum; 72 h) of the same compound?
A: Its inhibition at 3 µM is 47.7 ± 4.1%.

Q: What about the inhibition at 30 µM (C. acutatum; 72 h) of the same compound?
A: Its inhibition at 30 µM is -15.2 ± 3.7%.

Q: And the inhibition at 0.3 µM (B. cinerea; 48 h)?
A: Its inhibition at 0.3 µM is 50 ± 26.9%.

Q: What about the inhibition at 3 µM (B. cinerea; 48 h) of the same compound?
A: Its inhibition at 3 µM is 21.6 ± 27.3%.

Q: What about the inhibition at 30 µM (B. cinerea; 48 h) of the same compound?
A: The inhibition at 30 µM was 39.9 ± 20.4%.

Q: What about the inhibition at 0.3 µM (B. cinerea; 72 h) of the same compound?
A: The inhibition at 0.3 µM was 71.2 ± 25.1%.

Q: And the inhibition at 3 µM (B. cinerea; 72 h)?
A: The inhibition at 3 µM was 40.9 ± 22%.

Q: What about the inhibition at 30 µM (B. cinerea; 72 h) of the same compound?
A: The inhibition at 30 µM was 47.3 ± 14.9%.

Q: What about the inhibition at 0.3 µM (C. gloeosporioides; 48 h) of the same compound?
A: The inhibition at 0.3 µM was 47.5 ± 9.2%.

Q: And the inhibition at 3 µM (C. gloeosporioides; 48 h)?
A: Its inhibition at 3 µM is 84.2 ± 3.8%.

Q: What about the inhibition at 30 µM (C. gloeosporioides; 48 h) of the same compound?
A: The inhibition at 30 µM was 82.4 ± 4%.

Q: What about the inhibition at 0.3 µM (C. gloeosporioides; 72 h) of the same compound?
A: The inhibition at 0.3 µM was 16.1 ± 6.5%.

Q: What about the inhibition at 3 µM (C. gloeosporioides; 72 h) of the same compound?
A: Its inhibition at 3 µM is 59.9 ± 9.6%.

Q: What about the inhibition at 30 µM (C. gloeosporioides; 72 h) of the same compound?
A: Its inhibition at 30 µM is 44.8 ± 8.6%.

Q: What about the inhibition at 0.3 µM (F. oxysporum; 48 h) of the same compound?
A: The inhibition at 0.3 µM was 3.3 ± 4.7%.

Q: What about the inhibition at 3 µM (F. oxysporum; 48 h) of the same compound?
A: The inhibition at 3 µM was 12 ± 3%.

Q: What about the inhibition at 30 µM (F. oxysporum; 48 h) of the same compound?
A: The inhibition at 30 µM was 86.3 ± 1.6%.

Q: And the inhibition at 0.3 µM (F. oxysporum; 72 h)?
A: The inhibition at 0.3 µM was -1.6 ± 3.2%.

Q: And the inhibition at 3 µM (F. oxysporum; 72 h)?
A: Its inhibition at 3 µM is 0.8 ± 3.5%.

Q: And the inhibition at 30 µM (F. oxysporum; 72 h)?
A: Its inhibition at 30 µM is 77.2 ± 2.3%.

Q: Which “Percent inhibition−Percent Stimulation±SEM” value (C. fragariae; 0.3 μM, 48 hrs) does the source give for COc1cnc2c3c(nccc13)-c1ccccc1C2=O [4-methoxysampangine] here?
A: Its value is −15.0 ± 7.5%.

Q: And the “Percent inhibition−Percent Stimulation±SEM” value (C. fragariae; 0.3 μM, 72 hrs)?
A: The value was −30.2 ± 7.4%.

Q: And the “Percent inhibition−Percent Stimulation±SEM” value (C. fragariae; 3.0 μM, 48 hrs)?
A: The value was −75.2 ± 6.7%.

Q: What about the “Percent inhibition−Percent Stimulation±SEM” value (C. fragariae; 3.0 μM, 72 hrs) of the same compound?
A: Its value is −44.3 ± 6.5%.

Q: What about the “Percent inhibition−Percent Stimulation±SEM” value (C. fragariae; 30 μM, 48 hrs) of the same compound?
A: The value was −67.9 ± 13.6%.

Q: What about the “Percent inhibition−Percent Stimulation±SEM” value (C. fragariae; 30 μM, 72 hrs) of the same compound?
A: The value was −39.6 ± 6.3%.

Q: What about the “Percent inhibition−Percent Stimulation±SEM” value (C. acutatum; 0.3 μM, 48 hrs) of the same compound?
A: The value was −5.1 ± 7.8%.

Q: What about the “Percent inhibition−Percent Stimulation±SEM” value (C. acutatum; 0.3 μM, 72 hrs) of the same compound?
A: Its value is −0.3 ± 6.4%.

Q: And the “Percent inhibition−Percent Stimulation±SEM” value (C. acutatum; 3.0 μM, 48 hrs)?
A: The value was −75.1 ± 6.8%.

Q: And the “Percent inhibition−Percent Stimulation±SEM” value (C. acutatum; 3.0 μM, 72 hrs)?
A: Its value is −44.1 ± 6.5%.

Q: And the “Percent inhibition−Percent Stimulation±SEM” value (C. acutatum; 30 μM, 48 hrs)?
A: The value was −51.3 ± 6.2%.

Q: And the “Percent inhibition−Percent Stimulation±SEM” value (C. acutatum; 30 μM, 72 hrs)?
A: Its value is −25.4 ± 5.4%.

Q: And the “Percent inhibition−Percent Stimulation±SEM” value (B. cinerea; 0.3 μM, 48 hrs)?
A: The value was −23.0 ± 14.4%.

Q: What about the “Percent inhibition−Percent Stimulation±SEM” value (B. cinerea; 0.3 μM, 72 hrs) of the same compound?
A: The value was −4.8 ± 12.6%.

Q: What about the “Percent inhibition−Percent Stimulation±SEM” value (B. cinerea; 3.0 μM, 48 hrs) of the same compound?
A: The value was −59.2 ± 6.7%.

Q: What about the “Percent inhibition−Percent Stimulation±SEM” value (B. cinerea; 3.0 μM, 72 hrs) of the same compound?
A: Its value is −18.4 ± 5.4%.

Q: What about the “Percent inhibition−Percent Stimulation±SEM” value (B. cinerea; 30 μM, 48 hrs) of the same compound?
A: Its value is −20.3 ± 21.8%.

Q: And the “Percent inhibition−Percent Stimulation±SEM” value (B. cinerea; 30 μM, 72 hrs)?
A: Its value is 19.0 ± 14.3%.

Q: What about the “Percent inhibition−Percent Stimulation±SEM” value (C. gloeosporioides; 0.3 μM, 48 hrs) of the same compound?
A: The value was −48.5 ± 6.7%.

Q: And the “Percent inhibition−Percent Stimulation±SEM” value (C. gloeosporioides; 0.3 μM, 72 hrs)?
A: The value was −15.6 ± 1.9%.

Q: What about the “Percent inhibition−Percent Stimulation±SEM” value (C. gloeosporioides; 3.0 μM, 48 hrs) of the same compound?
A: Its value is −94.4 ± 0.9%.

Q: What about the “Percent inhibition−Percent Stimulation±SEM” value (C. gloeosporioides; 3.0 μM, 72 hrs) of the same compound?
A: The value was −91.1 ± 2.1%.

Q: What about the “Percent inhibition−Percent Stimulation±SEM” value (C. gloeosporioides; 30 μM, 48 hrs) of the same compound?
A: Its value is −95.9 ± 3.4%.

Q: And the “Percent inhibition−Percent Stimulation±SEM” value (C. gloeosporioides; 30 μM, 72 hrs)?
A: Its value is −79.7 ± 6.0%.

Q: And the “Percent inhibition−Percent Stimulation±SEM” value (F. oxysporum; 0.3 μM, 48 hrs)?
A: Its value is −10.3 ± 4.7%.

Q: And the “Percent inhibition−Percent Stimulation±SEM” value (F. oxysporum; 0.3 μM, 72 hrs)?
A: Its value is 2.9 ± 4.2%.

Q: And the “Percent inhibition−Percent Stimulation±SEM” value (F. oxysporum; 3.0 μM, 48 hrs)?
A: The value was −66.8 ± 5.5%.

Q: And the “Percent inhibition−Percent Stimulation±SEM” value (F. oxysporum; 3.0 μM, 72 hrs)?
A: Its value is −33.5 ± 1.9%.

Q: What about the “Percent inhibition−Percent Stimulation±SEM” value (F. oxysporum; 30 μM, 48 hrs) of the same compound?
A: The value was −43.6 ± 2.7%.

Q: And the “Percent inhibition−Percent Stimulation±SEM” value (F. oxysporum; 30 μM, 72 hrs)?
A: Its value is −23.5 ± 1.6%.
